From patent US20240158385A1, “NOVEL COMPOUNDS” (Cerevance, Inc., priority 2021, published 2024)

target: T1, human KCNK13 (Homo sapiens, UniProt Q9HB14); assay: KCNK13 antagonist activity, thallium (Tl+) flux FLIPR assay; assay type: cell-based; conditions: HEK 293 cells stably expressing human KCNK13; Tl+ sensitive dye, FLIPR; compounds 15 minutes prior to thallium sulfate; 10 point half log curves from 10 PM; read-out: hKCNK13 IC50
T1 construct: expressed in transfected cells
T1 sequence (Q9HB14 1-408): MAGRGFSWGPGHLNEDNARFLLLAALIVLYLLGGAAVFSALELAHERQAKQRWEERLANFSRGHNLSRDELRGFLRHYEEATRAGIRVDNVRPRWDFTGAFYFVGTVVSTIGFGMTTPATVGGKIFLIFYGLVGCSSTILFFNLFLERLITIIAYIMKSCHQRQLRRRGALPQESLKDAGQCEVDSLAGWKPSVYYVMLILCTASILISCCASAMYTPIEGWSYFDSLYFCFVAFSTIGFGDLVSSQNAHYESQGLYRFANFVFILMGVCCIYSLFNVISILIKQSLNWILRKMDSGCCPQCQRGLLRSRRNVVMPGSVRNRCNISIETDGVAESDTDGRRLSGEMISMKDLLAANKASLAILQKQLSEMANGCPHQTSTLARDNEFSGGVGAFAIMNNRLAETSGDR
Description: KCNK13 antagonist activity was determined by measuring changes in intracellular Thallium (Tl^+) concentrations using a Tl^+ sensitive fluorescent dye. The changes in fluorescent signal were monitored by Fluorescent Imaging Plate Reader (FLIPR™) technology available from Molecular Devices, LLC, US. KCNK13 mediated increases in intracellular Tl+concentration were readily detected by addition of a thallium sulfate stimulus. 24 hours prior to the assay, human embryonic kidney 293 cells (HEK 293 cells) stably expressing human KCNK13 were seeded in cell culture medium in PDL coated black, clear-bottom 384-well plates (commercially available from Corning Inc., 356663) and grown overnight at 37° C., 5% CO2. On the day of the assay, cell culture media was removed and cells were loaded with potassium dye (commercially sold by Molecular Devices, LLC, US, R8222) for 1 hour at room temperature in the dark. Test compounds (at 10 point half log concentration response curves from […]) were added to cells for 15 minutes prior to the addition of thallium sulfate to all wells. The IC50 values were determined from ten point concentration response curves. Curves were generated using the average of two wells for each data point.

Row | SMILES | IC50 [nM]
1 | CC(c1cccnc1)n1c(-c2nonc2N)nc2ccccc21 (racemic) [Example 85, rac-4-[1-[1-(pyridin-3-yl)ethyl]benzimidazol-2-yl]-1,2,5-oxadiazol-3-amine] | < 5000
2 | Nc1nonc1-c1nc2ccc(F)cc2n1Cc1cncnc1 (single isomer, unassigned) [Example 4, 4-[6-fluoro-1-(pyrimidin-5-ylmethyl)benzimidazol-2-yl]-1,2,5-oxadiazol-3-amine] | < 50
3 | Nc1nonc1-c1nc2cc(F)ccc2n1Cc1cncnc1 (single isomer, unassigned) [Example 5, 4-[5-fluoro-1-(pyrimidin-5-ylmethyl)benzimidazol-2-yl]-1,2,5-oxadiazol-3-amine] | < 100
4 | N#Cc1ncc(Cn2c(-c3nonc3N)nc3cccc(F)c32)cn1 (single isomer, unassigned) [Example 25, 5-[[2-(4-amino-1,2,5-oxadiazol-3-yl)-7-fluoro-benzimidazol-1-yl]methyl]pyrimidine-2-carbonitrile] | < 50
5 | N#Cc1ncc(Cn2c(-c3nonc3N)nc3c(F)cccc32)cn1 (single isomer, unassigned) [Example 26, 5-[[2-(4-amino-1,2,5-oxadiazol-3-yl)-4-fluoro-benzimidazol-1-yl]methyl]pyrimidine-2-carbonitrile] | < 100
6 | [2H]C([2H])(c1cccnc1)n1c(-c2nonc2C)nc2c(F)cccc21 (single isomer, unassigned) [Example 30, 3-[1-[dideuterio(pyridin-3-yl)methyl]-4-fluoro-benzimidazol-2-yl]-4-methyl-1,2,5-oxadiazole] | < 50
7 | [2H]C([2H])(c1cccnc1)n1c(-c2nonc2C)nc2cccc(F)c21 (single isomer, unassigned) [Example 31, 3-[1-[dideuterio(pyridin-3-yl)methyl]-7-fluoro-benzimidazol-2-yl]-4-methyl-1,2,5-oxadiazole] | < 50
8 | Cc1nonc1-c1nc2c(Cl)cccc2n1Cc1ccc(C#N)nc1 (single isomer, unassigned) [Example 61, 5-[[4-chloro-2-(4-methyl-1,2,5-oxadiazol-3-yl)benzimidazol-1-yl]methyl]pyridine-2-carbonitrile] | < 200
9 | Cc1nonc1-c1nc2cccc(Cl)c2n1Cc1ccc(C#N)nc1 (single isomer, unassigned) [Example 62, 5-[[7-chloro-2-(4-methyl-1,2,5-oxadiazol-3-yl)benzimidazol-1-yl]methyl]pyridine-2-carbonitrile] | < 200
10 | Nc1nonc1-c1nc2c(F)cccc2n1Cc1cccnc1 (single isomer, unassigned) [Example 87, 4-[4-fluoro-1-(pyridin-3-ylmethyl)benzimidazol-2-yl]-1,2,5-oxadiazol-3-amine] | < 50
11 | Nc1nonc1-c1nc2ccc(F)cc2n1Cc1cccnc1 (single isomer, unassigned) [Example 118, 4-[6-fluoro-1-(pyridin-3-ylmethyl)benzimidazol-2-yl]-1,2,5-oxadiazol-3-amine] | < 50
12 | Nc1nonc1-c1nc2cc(F)ccc2n1Cc1cccnc1 (single isomer, unassigned) [Example 119, 4-[5-fluoro-1-(pyridin-3-ylmethyl)benzimidazol-2-yl]-1,2,5-oxadiazol-3-amine] | < 50
13 | Nc1nonc1-c1nc2c(F)cccc2n1Cc1ccncc1 (single isomer, unassigned) [Example 121, 4-[4-fluoro-1-(pyridin-4-ylmethyl)benzimidazol-2-yl]-1,2,5-oxadiazol-3-amine] | < 100
14 | Cc1nonc1-c1nc2cccc(F)c2n1Cc1cccnc1 (single isomer, unassigned) [Example 122, 3-[7-fluoro-1-(pyridin-3-ylmethyl)benzimidazol-2-yl]-4-methyl-1,2,5-oxadiazole] | < 50
15 | Cc1nonc1-c1nc2c(F)cccc2n1Cc1cccnc1 (single isomer, unassigned) [Example 123, 3-[4-fluoro-1-(pyridin-3-ylmethyl)benzimidazol-2-yl]-4-methyl-1,2,5-oxadiazole] | < 50
16 | Cc1nsnc1-c1nc2c(F)cccc2n1Cc1cccnc1 (single isomer, unassigned) [Example 124, 3-[4-fluoro-1-(pyridin-3-ylmethyl)benzimidazol-2-yl]-4-methyl-1,2,5-thiadiazole] | < 50

Row | SMILES | IC50 [nM]
17 | Cc1nsnc1-c1nc2cccc(F)c2n1Cc1cccnc1 (single isomer, unassigned) [Example 125, 3-[7-fluoro-1-(pyridin-3-ylmethyl)benzimidazol-2-yl]-4-methyl-1,2,5-thiadiazole] | < 50
18 | Cc1snnc1-c1nc2cccc(F)c2n1Cc1cccnc1 (single isomer, unassigned) [Example 128, 4-[7-fluoro-1-(pyridin-3-ylmethyl)benzimidazol-2-yl]-5-methyl-1,2,3-thiadiazole] | < 100
19 | Cc1snnc1-c1nc2c(F)cccc2n1Cc1cccnc1 (single isomer, unassigned) [Example 129, 4-[4-fluoro-1-(pyridin-3-ylmethyl)benzimidazol-2-yl]-5-methyl-1,2,3-thiadiazole] | < 100
20 | Nc1nonc1-c1nc2cccc(F)c2n1Cc1ccnnc1 (single isomer, unassigned) [Example 132, 4-(7-fluoro-1-(pyridazin-4-ylmethyl)-benzimidazol-2-yl)-1,2,5-oxadiazol-3-amine] | < 50
21 | Nc1nonc1-c1nc2c(F)cccc2n1Cc1ccnnc1 (single isomer, unassigned) [Example 133, 4-(4-fluoro-1-(pyridazin-4-ylmethyl)-benzimidazol-2-yl)-1,2,5-oxadiazol-3-amine] | < 100
22 | Nc1nonc1-c1nc2cccc(F)c2n1Cc1ccncn1 (single isomer, unassigned) [Example 134, 4-(7-fluoro-1-(pyrimidin-4-ylmethyl)-benzimidazol-2-yl)-1,2,5-oxadiazol-3-amine] | < 50
23 | Nc1nonc1-c1nc2c(F)cccc2n1Cc1ccncn1 (single isomer, unassigned) [Example 135, 4-(4-fluoro-1-(pyrimidin-4-ylmethyl)-benzimidazol-2-yl)-1,2,5-oxadiazol-3-amine] | < 200
24 | Cc1nonc1-c1nc2cccc(F)c2n1Cc1ccc(S(C)(=O)=O)nc1 (single isomer, unassigned) [Example 137, 3-(7-fluoro-1-((6-(methylsulfonyl)pyridin-3-yl)methyl)-benzimidazol-2-yl)-4-methyl-1,2,5-oxadiazole] | < 500
25 | Cc1nonc1-c1nc2c(F)cccc2n1Cc1ccc(S(C)(=O)=O)nc1 (single isomer, unassigned) [Example 138, 3-(4-fluoro-1-((6-(methylsulfonyl)pyridin-3-yl)methyl)-benzimidazol-2-yl)-4-methyl-1,2,5-oxadiazole] | < 1000
26 | Cc1nonc1-c1nc2cc(F)cc(F)c2n1Cc1cccnn1 (single isomer, unassigned) [Example 146, 3-(5,7-difluoro-1-(pyridazin-3-ylmethyl)-benzimidazol-2-yl)-4-methyl-1,2,5-oxadiazole] | < 50
27 | Cc1nonc1-c1nc2c(F)cc(F)cc2n1Cc1cccnn1 (single isomer, unassigned) [Example 147, 3-(4,6-difluoro-1-(pyridazin-3-ylmethyl)-benzimidazol-2-yl)-4-methyl-1,2,5-oxadiazole] | < 200
28 | Nc1nonc1-c1nc2cccc(F)c2n1Cc1ccc(Cl)nn1 (single isomer, unassigned) [Example 148, 4-(1-((6-chloropyridazin-3-yl)methyl)-7-fluoro-benzimidazol-2-yl)-1,2,5-oxadiazol-3-amine] | < 50
29 | Nc1nonc1-c1nc2c(F)cccc2n1Cc1ccc(Cl)nn1 (single isomer, unassigned) [Example 149, 4-(1-((6-chloropyridazin-3-yl)methyl)-4-fluoro-benzimidazol-2-yl)-1,2,5-oxadiazol-3-amine] | < 100
30 | COc1ccc(Cn2c(-c3nonc3N)nc3cccc(F)c32)nn1 (single isomer, unassigned) [Example 152, 4-(7-fluoro-1-((6-methoxypyridazin-3-yl)methyl)-benzimidazol-2-yl)-1,2,5-oxadiazol-3-amine] | < 50
31 | COc1ccc(Cn2c(-c3nonc3N)nc3c(F)cccc32)nn1 (single isomer, unassigned) [Example 153, 4-(4-fluoro-1-((6-methoxypyridazin-3-yl)methyl)-benzimidazol-2-yl)-1,2,5-oxadiazol-3-amine] | < 200
32 | Nc1nsnc1-c1nc2cccc(F)c2n1Cc1cccnn1 (single isomer, unassigned) [Example 156, 4-(7-fluoro-1-(pyridazin-3-ylmethyl)-benzimidazol-2-yl)-1,2,5-thiadiazol-3-amine] | < 50
